These results are taken from patent publication US11034648B2, “Cystobactamide derivatives” (priority 2017, dated 2021).

SMILES strings stand for the structures. In brackets after ≈: the same amount, converted by molar mass.

Common to all, as to assay type: cell-based
Assay [1] deals with E. coli ΔtolC. Kind of assay: microbe, parasite or virus in culture. The conditions noted are these: Escherichia coli, 16 h, read-out: MIC E. coli ΔtolC, small panel, Tables 1a/1b; no visual growth after approx. 16 h. The protocol: (§1) Cystobactamid derivatives synthesized were tested against relevant Gram negative and positive bacteria of clinical interest. Experimental procedures used for the biological characterization of the compounds are the same as previously described in WO 2016/082934.
(§2) Bacterial strains used in susceptibility assays (minimum inhibitory concentration, MIC) were either part of our internal strain collection or purchased from the German Collection of Microorganisms and Cell Cultures (Deutsche Sammlung von Mikroorganismen und Zellkulturen, DSMZ) and the American Type Culture Collection (ATCC). The susceptible E. coli strain (WT) and fluoroquinolone-resistant mutants E. coli WT-3 and WT-III were kindly provided by Prof Dr. P. Heisig, Pharmaceutical Biology and Microbiology, University of Hamburg, Germany. The efflux-deficient strain P. aeruginosa ΔmexAB was kindly provided by Prof Dr. S. Häußler, Institute for Molecular Bacteriology, TWINCORE, Hannover, Germany. All compounds were prepared as DMSO stocks and MIC values were determined in standard microbroth dilution assays in 96-well MTPs as described in Baumann et al., Angew Chem Int Ed Engl. 2014; 53(52):14605-9. In brief, overnight cultures of bacteria were diluted in either tryptic soy broth (TSB: 1.7% peptone casein, 0.3% peptone soymeal, 0.25% glucose, 0.5% NaCl, 0.25% K2HPO4; pH 7.3; S. pneumoniae and E. faecalis) or cation-adjusted Müller-Hinton Broth (BBL™, BD; all other bacteria) and adjusted to 10^4-10^6 cfu/mL. Bacteria were grown in the presence of the derivatives in serial dilution for approx. 16 h at 30-37° C. MIC values were determined and were defined as the antibiotic concentration at which no visual growth of bacteria was observed.

Assay [2] deals with P. aeruginosa ΔmexAB. Kind of assay: microbe, parasite or virus in culture. As to conditions: Pseudomonas aeruginosa, 16 h, read-out: MIC P. aeruginosa ΔmexAB, efflux-deficient strain; small panel, Tables 1a/1b. As for the experimental part:
as §1, §2

Assay [3] deals with E. coli WT DSM-1116. Kind of assay: MIC, microbroth dilution susceptibility assay. The conditions noted are these: Escherichia coli, DSM1116; small panel, Tables 1a/1b; no visual growth after approx. 16 h; read-out: MIC E. coli WT DSM-1116. The protocol:
as §1, §2
For orientation: In broth dilution the organism is exposed to a series of concentrations in liquid medium.

In assay [4] the test system is P. aeruginosa WT PA14. The experiment in a line: MIC, microbroth dilution susceptibility assay. As to conditions: Pseudomonas aeruginosa, PA14, small panel, Tables 1a/1b; read-out: MIC P. aeruginosa WT PA14. As for the experimental part:
as §1, §2

The subject of assay [5] is S. aureus Newman. The experiment in a line: MIC, microbroth dilution susceptibility assay. The conditions noted are these: Staphylococcus aureus, NEWMAN; small panel, Tables 1a/1b; read-out: MIC S. aureus Newman. As for the experimental part:
as §1, §2

Turning to `CC(C)Oc1c(NC(=O)c2ccc(NC(=O)[C@H](CC(N)=O)NC(=O)c3ccc(NC(=O)c4ccc([N+](=O)[O-])cc4)cc3)cc2)ccc(C(=O)Nc2ccc(C(N)=O)cc2)c1O` [Compound 78, (S)—N1-(4-((4-((4-carbamoylphenyl)carbamoyl)-3-hydroxy-2-isopropoxyphenyl)carbamoyl)phenyl)-2-(4-(4-nitrobenzamido)benzamido)succinamide], the MIC in assay [1] is not above 0.03 µg/mL; in assay [2], more than 64 µg/mL; in assay [3], 32 µg/mL (≈ 38.5 µM); in assay [4], more than 64 µg/mL; in assay [5], 64 µg/mL (≈ 77 µM).

For the molecule `CC(C)Oc1c(NC(=O)c2ccc(NC(=O)[C@H](CC(N)=O)NC(=O)c3ccc(NC(=O)c4ccc(C#N)cc4)cc3)cc2)ccc(C(=O)Nc2ccn(C)c2)c1O` [Compound 87, (S)-2-(4-(4-cyanobenzamido)benzamido)-N1-(4-((3-hydroxy-2-isopropoxy-4-((1-methyl-1H-pyrrol-3-yl)carbamoyl)phenyl)carbamoyl)phenyl)succinamide], the MIC is less than 0.03 µg/mL in assay [1]; more than 64 µg/mL in assay [2]; more than 64 µg/mL in assay [3]; more than 64 µg/mL in assay [4]; more than 64 µg/mL in assay [5].

`CC(C)Oc1c(NC(=O)c2ccc(NC(=O)[C@H](CC(N)=O)NC(=O)c3ccc(NC(=O)c4ccc(C#N)cc4)cc3)cc2)ccc(C(=O)Nc2cc(C(=O)O)n(C)c2)c1O` [Compound 88, (S)-4-(4-(4-(4-amino-2-(4-(4-cyanobenzamido)benzamido)-4-oxobutanamido)benzamido)-2-hydroxy-3-isopropoxybenzamido)-1-methyl-1H-pyrrole-2-carboxylic acid]: the MIC in assay [1] was less than 0.03 µg/mL; in assay [2], 8 µg/mL (≈ 9.82 µM); in assay [3], 0.5 µg/mL (≈ 0.614 µM); in assay [4], more than 64 µg/mL; in assay [5], 64 µg/mL (≈ 78.5 µM).

On to `CC(C)Oc1c(NC(=O)c2ccc(NC(=O)[C@H](CC(N)=O)NC(=O)c3ccc(NC(=O)c4ccc(C#N)cc4)cc3)cc2)ccc(C(=O)NCc2ccc(C(=O)O)cc2)c1O` [Compound 89, (S)-4-((4-(4-(4-amino-2-(4-(4-cyanobenzamido)benzamido)-4-oxobutanamido)benzamido)-2-hydroxy-3-isopropoxybenzamido)methyl)benzoic acid], for which the MIC in assay [1] was 0.25 µg/mL (≈ 0.303 µM); in assay [2], more than 64 µg/mL; in assay [3], more than 64 µg/mL; in assay [4] it was more than 64 µg/mL; in assay [5] it was more than 64 µg/mL.

Regarding `CC(C)Oc1c(NC(=O)c2ccc(NC(=O)[C@H](CC(N)=O)NC(=O)c3ccc(NC(=O)c4ccc(C#N)cc4)cc3)cc2)ccc(C(=O)Nc2cccc(C(=O)O)c2)c1O` [Compound 90, (S)-3-(4-(4-(4-amino-2-(4-(4-cyanobenzamido)benzamido)-4-oxobutanamido)benzamido)-2-hydroxy-3-isopropoxybenzamido)benzoic acid], the MIC in assay [1] was 0.03 µg/mL (≈ 0.037 µM); in assay [2] it was more than 64 µg/mL; in assay [3] it was 0.5 µg/mL (≈ 0.616 µM); in assay [4], more than 64 µg/mL; in assay [5], 2 µg/mL (≈ 2.46 µM).

With `CC(C)Oc1c(NC(=O)c2ccc(NC(=O)[C@H](CC(N)=O)NC(=O)c3ccc(NC(=O)c4ccc(C#N)cc4)cc3)cc2)ccc(C(=O)NC2CCNCC2)c1O` [Compound 91, (S)-2-(4-(4-cyanobenzamido)benzamido)-N1-(4-((3-hydroxy-2-isopropoxy-4-(piperidin-4-ylcarbamoyl)phenyl)carbamoyl)phenyl)succinamide], the MIC in assay [1], in assay [2], in assay [3], in assay [4] and in assay [5] was more than 64 µg/mL throughout.

Turning to `CC(C)Oc1c(NC(=O)c2ccc(NC(=O)[C@H](CC(N)=O)NC(=O)c3ccc(NC(=O)c4ccc(C#N)cc4)cc3)cc2)ccc(C(=O)Nc2ccc(S(=O)(=O)O)cc2)c1O` [Compound 92, (S)-4-(4-(4-(4-amino-2-(4-(4-cyanobenzamido)benzamido)-4-oxobutanamido)benzamido)-2-hydroxy-3-isopropoxybenzamido)benzenesulfonic acid], the MIC was 0.25 µg/mL (≈ 0.295 µM) in assay [1]; more than 64 µg/mL in assay [2]; more than 64 µg/mL in assay [3]; more than 64 µg/mL in assay [4]; more than 64 µg/mL in assay [5].

For `CC(C)Oc1c(NC(=O)c2ccc(NC(=O)[C@H](CC(N)=O)NC(=O)c3ccc(NC(=O)c4ccc(C#N)cc4)cc3)cc2)ccc(C(=O)N[C@@H]2CONC2=O)c1O` [Compound 93, (S)-2-(4-(4-cyanobenzamido)benzamido)-N1-(4-((3-hydroxy-2-isopropoxy-4-(((R)-3-oxoisoxazolidin-4-yl)carbamoyl)phenyl)carbamoyl)phenyl)succinamide], the MIC in assay [1] was 0.5 µg/mL (≈ 0.644 µM); in assay [2], more than 64 µg/mL; in assay [3], more than 64 µg/mL; in assay [4], more than 64 µg/mL; in assay [5], more than 64 µg/mL.

Consider `CC(C)Oc1c(NC(=O)c2ccc(NC(=O)[C@H](CC(N)=O)NC(=O)c3ccc(NC(=O)c4ccc(C#N)cc4)cc3)cc2)ccc(C(=O)Nc2ccncc2)c1O` [Compound 94, (S)-2-(4-(4-cyanobenzamido)benzamido)-N1-(4-((3-hydroxy-2-isopropoxy-4-(pyridin-4-ylcarbamoyl)phenyl)carbamoyl)phenyl)succinamide], for which the MIC was 0.03 µg/mL (≈ 0.039 µM) in assay [1]; more than 64 µg/mL in assay [2]; more than 64 µg/mL in assay [3]; more than 64 µg/mL in assay [4]; more than 64 µg/mL in assay [5].

For `C/C(=C/c1ccc(C#N)cc1)C(=O)Nc1ccc(C(=O)N[C@@H](CC(N)=O)C(=O)Nc2ccc(C(=O)Nc3ccc(C(=O)Nc4ccc(C(=O)O)cc4)c(O)c3OC(C)C)cc2)cc1` [Compound 122, (S,Z)-4-(4-(4-(4-amino-2-(4-(3-(4-cyanophenyl)-2-methylacrylamido)benzamido)-4-oxobutanamido)benzamido)-2-hydroxy-3-isopropoxybenzamido)benzoic acid], the MIC in assay [1] was 0.25 µg/mL (≈ 0.293 µM); in assay [2] it was more than 64 µg/mL; in assay [3], 1 µg/mL (≈ 1.17 µM); in assay [4], more than 64 µg/mL; in assay [5], 8 µg/mL (≈ 9.39 µM).

As to `CO[C@@H](C(N)=O)[C@H](NC(=O)c1ccc(NC(=O)/C(C)=C/c2ccc(C#N)cc2)cc1)C(=O)Nc1ccc(C(=O)Nc2ccc(C(=O)Nc3ccc(C(=O)O)cc3)c(O)c2OC(C)C)cc1` [Compound 123, 4-(4-(4-((2S,3R)-4-amino-2-(4-((E)-3-(4-cyanophenyl)-2-methylacrylamido)benzamido)-3-methoxy-4-oxobutanamido)benzamido)-2-hydroxy-3-isopropoxybenzamido)benzoic acid], the MIC in assay [1] was 0.5 µg/mL (≈ 0.567 µM); in assay [2], 2 µg/mL (≈ 2.27 µM); in assay [3], 1 µg/mL (≈ 1.13 µM); in assay [4] it was 8 µg/mL (≈ 9.07 µM); in assay [5], 4 µg/mL (≈ 4.54 µM).

On to `C/C(=C\c1ccc(C#N)cc1)C(=O)Nc1ccc(C(=O)N[C@@H](CC(N)=O)C(=O)Nc2ccc(C(=O)Nc3ccc(C(=O)Nc4ccc(C(=O)O)cc4)c(O)c3OCC(C)C)cc2)cc1` [Compound 125, (S,E)-4-(4-(4-(4-amino-2-(4-(3-(4-cyanophenyl)-2-methylacrylamido)benzamido)-4-oxobutanamido)benzamido)-2-hydroxy-3-isobutoxybenzamido)benzoic acid], for which the MIC in assay [1] was 0.06 µg/mL (≈ 0.0693 µM); in assay [2], more than 64 µg/mL; in assay [3] it was 0.5 µg/mL (≈ 0.577 µM); in assay [4], more than 64 µg/mL; in assay [5] it was 0.06 µg/mL (≈ 0.0693 µM).
